Results on five compounds are retold here after US10206394B2, “Herbicidal compounds” (Syngenta Participations AG, priority 2014, dated 2019).

Holding throughout (experiment): Glasshouse assay for herbicidal activity (pre- and post-emergence), percentage phytotoxicity
Assay type in all cases: in vivo

Experiment [1] deals with Echinochloa crus-galli (ECHCG). The settings on record: Echinochloa crus-galli. In a few lines: (§1)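 Potted test plants in standard soil received the compound pre-emergence (day 1) or post-emergence (about day 12). Evaluation: visual damage score from 0% (none) to 100% (total), 15 days after application post-emergence, 20 days pre-emergence.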
The test system of experiment [2] is Avena fatua (AVEFA). The settings on record: Avena fatua. An outline of the steps: as §1
Experiment [3] concerns Alopecurus myosuroides (ALOMY). The settings on record: Alopecurus myosuroides. In a few lines: as §1
Experiment [4] deals with Lolium perenne (LOLPE). The note with it: Lolium perenne. An outline of the steps:
as §1

The mark [5] stands for this setting: post-emergence, 360 h, post-emergence, 250 g/ha, 15 DAA, visual score (100%=total damage; 0%=no damage), read-out: ECHCG POST herbicidal activity (percentage phytotoxicity).
[6] abbreviates: pre-emergence, 480 h, pre-emergence, 250 g/ha, 20 DAA, visual score (100%=total damage; 0%=no damage), read-out: ECHCG PRE herbicidal activity (percentage phytotoxicity).
The mark [7] stands for this setting: post-emergence, 360 h, post-emergence, 250 g/ha, 15 DAA, visual score (100%=total damage; 0%=no damage), read-out: AVEFA POST herbicidal activity (percentage phytotoxicity).
Where [8] appears, read: pre-emergence, 480 h, pre-emergence, 250 g/ha, 20 DAA, visual score (100%=total damage; 0%=no damage), read-out: AVEFA PRE herbicidal activity (percentage phytotoxicity).
The mark [9] stands for this setting: post-emergence, 360 h, post-emergence, 250 g/ha, 15 DAA, visual score (100%=total damage; 0%=no damage), read-out: ALOMY POST herbicidal activity (percentage phytotoxicity).
The mark [10] stands for this setting: pre-emergence, 480 h, pre-emergence, 250 g/ha, 20 DAA, visual score (100%=total damage; 0%=no damage), read-out: ALOMY PRE herbicidal activity (percentage phytotoxicity).
Setting [11] is: post-emergence, 360 h, post-emergence, 250 g/ha, 15 DAA, visual score (100%=total damage; 0%=no damage), read-out: LOLPE POST herbicidal activity (percentage phytotoxicity).
Setting [12] is: pre-emergence, 480 h, pre-emergence, 250 g/ha, 20 DAA, visual score (100%=total damage; 0%=no damage), read-out: LOLPE PRE herbicidal activity (percentage phytotoxicity).

Where two headings read alike, the source gives them in different places.

For `C=CCNC(=O)CC1CC(=O)C(c2c(C)cc(C)cc2C)C1=O` (stereo not shown) [Compound A175], the pest or weed control at 250 g/ha came out at 90% in experiment [1] (setting [5]); 90% in experiment [1] (setting [6]); 90% in experiment [2] (setting [7]); 70% in experiment [2] (setting [8]); 80% in experiment [3] (setting [9]); 80% in experiment [3] (setting [10]). Moreover, the pest or weed control at 250 g/ha was found to be 90% in experiment [4] (setting [11]) and 100% in experiment [4] (setting [12]).
As for `C#CCN(C)C(=O)CC1CC(=O)C(c2c(C)cc(/C=C/C)cc2C)C1=O` (stereo not shown) [Compound B250], the pest or weed control at 250 g/ha in experiment [1] (post-emergence, 360 h, POST-emergence, rate 250 g/ha, visual score 15 DAA (100%=total damage, 0%=no damage), read-out: Post-emergence herbicidal activity (percentage phytotoxicity) ECHCG POST) came out at 100%; in experiment [1] (pre-emergence, 480 h, PRE-emergence, rate 250 g/ha, visual score 20 DAA (100%=total damage, 0%=no damage), read-out: Pre-emergence herbicidal activity (percentage phytotoxicity) ECHCG PRE), 90%; in experiment [2] (post-emergence, 360 h, POST-emergence, rate 250 g/ha, visual score 15 DAA (100%=total damage, 0%=no damage), read-out: Post-emergence herbicidal activity (percentage phytotoxicity) AVEFA POST) it was 90%; in experiment [2] (pre-emergence, 480 h, PRE-emergence, rate 250 g/ha, visual score 20 DAA (100%=total damage, 0%=no damage), read-out: Pre-emergence herbicidal activity (percentage phytotoxicity) AVEFA PRE), 50%; in experiment [3] (post-emergence, 360 h, POST-emergence, rate 250 g/ha, visual score 15 DAA (100%=total damage, 0%=no damage), read-out: Post-emergence herbicidal activity (percentage phytotoxicity) ALOMY POST), 100%; in experiment [3] (pre-emergence, 480 h, PRE-emergence, rate 250 g/ha, visual score 20 DAA (100%=total damage, 0%=no damage), read-out: Pre-emergence herbicidal activity (percentage phytotoxicity) ALOMY PRE) it was 50%. The pest or weed control at 250 g/ha in experiment [4] (post-emergence, 360 h, POST-emergence, rate 250 g/ha, visual score 15 DAA (100%=total damage, 0%=no damage), read-out: Post-emergence herbicidal activity (percentage phytotoxicity) LOLPE POST) was found to be 100%; in experiment [4] (pre-emergence, 480 h, PRE-emergence, rate 250 g/ha, visual score 20 DAA (100%=total damage, 0%=no damage), read-out: Pre-emergence herbicidal activity (percentage phytotoxicity) LOLPE PRE), 80%.
As for `Cc1cc(C)c(C2C(=O)CC(CC(=O)N(C)C(C)(C)C)C2=O)c(C)c1` (stereo not shown) [Compound B80], the pest or weed control at 250 g/ha was 90% in experiment [1] (post-emergence, 360 h, 250 g/ha, post-emergence, 15 DAA, visual assessment (100%=total damage, 0%=no damage), read-out: Post-emergence herbicidal activity (percentage phytotoxicity) ECHCG POST); 90% in experiment [1] (pre-emergence, 480 h, 250 g/ha, pre-emergence, 20 DAA, visual assessment (100%=total damage, 0%=no damage), read-out: Pre-emergence herbicidal activity (percentage phytotoxicity) ECHCG PRE); 60% in experiment [2] (post-emergence, 360 h, 250 g/ha, post-emergence, 15 DAA, visual assessment (100%=total damage, 0%=no damage), read-out: Post-emergence herbicidal activity (percentage phytotoxicity) AVEFA POST); 0% in experiment [2] (pre-emergence, 480 h, 250 g/ha, pre-emergence, 20 DAA, visual assessment (100%=total damage, 0%=no damage), read-out: Pre-emergence herbicidal activity (percentage phytotoxicity) AVEFA PRE); 80% in experiment [3] (post-emergence, 360 h, 250 g/ha, post-emergence, 15 DAA, visual assessment (100%=total damage, 0%=no damage), read-out: Post-emergence herbicidal activity (percentage phytotoxicity) ALOMY POST); 90% in experiment [3] (pre-emergence, 480 h, 250 g/ha, pre-emergence, 20 DAA, visual assessment (100%=total damage, 0%=no damage), read-out: Pre-emergence herbicidal activity (percentage phytotoxicity) ALOMY PRE). For the same compound, the pest or weed control at 250 g/ha in experiment [4] (post-emergence, 360 h, 250 g/ha, post-emergence, 15 DAA, visual assessment (100%=total damage, 0%=no damage), read-out: Post-emergence herbicidal activity (percentage phytotoxicity) LOLPE POST) turned out to be 90%; in experiment [4] (pre-emergence, 480 h, 250 g/ha, pre-emergence, 20 DAA, visual assessment (100%=total damage, 0%=no damage), read-out: Pre-emergence herbicidal activity (percentage phytotoxicity) LOLPE PRE) it was 100%.
`Cc1cc(C)c(C2C(=O)CC(CC(N)=O)C2=O)c(C)c1` (stereo not shown) [Compound A187]: the pest or weed control at 250 g/ha worked out at 100% in experiment [1] (setting [5]); 90% in experiment [1] (setting [6]); 100% in experiment [2] (setting [7]); 90% in experiment [2] (setting [8]); 80% in experiment [3] (setting [9]); 80% in experiment [3] (setting [10]). Also, the pest or weed control at 250 g/ha in experiment [4] (setting [11]) is 90%; in experiment [4] (setting [12]) it was 100%.
Consider `Cc1cc(C)c(C2C(=O)CC(C(C)C(=O)NCc3cccs3)C2=O)c(C)c1` (stereo not shown) [Compound A165], for which the pest or weed control at 250 g/ha in experiment [1] (post-emergence, 360 h, Rate 250 g/ha, post-emergence, assessed visually 15 DAA, 100%=total damage, 0%=no damage, read-out: Post-emergence herbicidal activity (percentage phytotoxicity) ECHCG POST) worked out at 90%; in experiment [1] (pre-emergence, 480 h, Rate 250 g/ha, pre-emergence, assessed visually 20 DAA, 100%=total damage, 0%=no damage, read-out: Pre-emergence herbicidal activity (percentage phytotoxicity) ECHCG PRE), 100%; in experiment [2] (post-emergence, 360 h, Rate 250 g/ha, post-emergence, assessed visually 15 DAA, 100%=total damage, 0%=no damage, read-out: Post-emergence herbicidal activity (percentage phytotoxicity) AVEFA POST) it was 80%; in experiment [2] (pre-emergence, 480 h, Rate 250 g/ha, pre-emergence, assessed visually 20 DAA, 100%=total damage, 0%=no damage, read-out: Pre-emergence herbicidal activity (percentage phytotoxicity) AVEFA PRE), 0%; in experiment [3] (post-emergence, 360 h, Rate 250 g/ha, post-emergence, assessed visually 15 DAA, 100%=total damage, 0%=no damage, read-out: Post-emergence herbicidal activity (percentage phytotoxicity) ALOMY POST) it was 60%; in experiment [3] (pre-emergence, 480 h, Rate 250 g/ha, pre-emergence, assessed visually 20 DAA, 100%=total damage, 0%=no damage, read-out: Pre-emergence herbicidal activity (percentage phytotoxicity) ALOMY PRE) it was 60%. The pest or weed control at 250 g/ha turned out to be 80% in experiment [4] (post-emergence, 360 h, Rate 250 g/ha, post-emergence, assessed visually 15 DAA, 100%=total damage, 0%=no damage, read-out: Post-emergence herbicidal activity (percentage phytotoxicity) LOLPE POST) and 70% in experiment [4] (pre-emergence, 480 h, Rate 250 g/ha, pre-emergence, assessed visually 20 DAA, 100%=total damage, 0%=no damage, read-out: Pre-emergence herbicidal activity (percentage phytotoxicity) LOLPE PRE).
